Source: patent US7504384B2 (priority 2000, dated 2009)
Like-named read-outs stand apart in the source and are kept apart here.

Columns and labels:
[1] = system: Influenza A (H1N1 strain) virus; type: cell-based, Influenza type A, A/New Caledonia/20/99 (H1N1); settings: high concentration, Neutral Red Uptake Assay
[2] = system: Influenza A (H3N2 strain) virus; type: cell-based, Influenza type A, A/Panama/2007/99 (H3N2); settings: high concentration, Neutral Red Uptake Assay
[3] = system: Influenza A (H3N2 strain) virus; type: cell-based, Influenza type A, A/Panama/2007/99 (H3N2)
[4] = system: Influenza A (H1N1 strain) virus; type: cell-based, Influenza type A, A/New Caledonia/20/99 (H1N1); settings: high concentration; Visual Observation Assay; Influenza A (H1N1 strain)
[5] = system: PGE2 and TXB2 production by guinea pig tracheal rings; experiment: Tracheal tissue PGE2 and TXB2 production (radioimmunoassay); settings: Histamine (40 μM) + Compound XXVI (10 μM); histamine alone 5.6
Description: Experiment 3.5: Guinea pig tracheal rings were incubated with or without Compound XXVI for 30 minutes prior to stimulation. The medium was collected after 30 minutes, and PGE2 and TXB2 levels were determined by radioimmunoassay (Table 3.2). PGE2 and TXB2 are metabolites of arachidonic acid produced during inflammatory response.

[6] = system: Guinea pig tracheal rings; experiment: Inhibition of tracheal ring contraction; settings: Lipid-conjugate 10 μM
Description: A muscle preparation (tracheal rings) was isolated from rats (Experiments 3.1-3.3) and from guinea pigs (Experiments 3.4-3.5). Muscle contraction was measured by attachment of the muscle to a pressure transducer, which works much like a spring. Administration of asthmatogenic substances such as endothelin-1 (ET) and acetylcholine (AcCh) induces muscle contraction. Endothelins are released upon vascular endothelial injury, and they activate macrophages and act as strong chemo-attractants for circulating monocytes. Endothelins affect vascular smooth muscle fibroblast proliferation; help regulate vascular, airway, and intestinal smooth muscle tone; increase the activity of bone alkaline phosphatase; stimulate release of atrial natriuretic peptide (ANP) from atrial cardiocytes; inhibit the release of renin from glomeruli and modulate norepinephrine at sympathetic nerve termini. Opposing vasomotor effects are regulated through the binding of distinct endothelin receptors for vasoconstriction and vasodilation. Endothelins have been linked to atherosclerosis and various cardiovascular disease states. ET-1 is important in congestive heart failure, renal failure, pulmonary hypertension, hyperlipidemia and metastatic prostate cancer. On the other hand, AcCh is one of the three main receptors on the bronchi of the lungs, which are basically tubes with muscular walls. Stimulation of bronchial AcCh receptor induces muscle contraction and decreased airflow through the bronchi. Thus, ET and AcCh were used to experimentally induce muscle contraction in the lungs as a model of obstructive respiratory disorders.
Experiment 3.4: Guinea pig tracheal rings (in a linear array), immersed in a ringer bath, were connected to an apparatus measuring the length of the ring chain. […] Human airways have both Histamine (H)-1 and H2 receptors. H1 receptors, which mediate bronchoconstriction, predominate. Histamine application in experimental models produces signs and symptoms of asthma, such as narrowing of the airways, mucus secretion, wheezing, and coughing.

mice = experiment: Acute (7 day) toxicity test; type: in vivo; settings: mice, one week after a single i.p. dose of 1000, 500 or 200 mg/kg; versus untreated mice
Description: […] Mortality rate, body weight, blood count (red and white cells), hematocrit, and internal organ histology after sacrifice were assessed. These parameters were compared in Lipid-conjugate-treated and in control, untreated mice.

HIV-1IIIB = experiment: Inhibition of p24 production (HIV-1IIIB infection of MT-2 cells); type: cell-based; settings: fourth day, p24 ELISA
Description: Experiment 1.2: Inhibition of HIV-1IIIB Infection
After 1 h, half of the culture medium was changed and replaced by fresh medium (with/without Lipid-conjugate) and after 24 h, the second half of the culture medium was changed and replaced by fresh medium (with/without Lipid-conjugate). On the fourth day after incubation at 37° C., 100 μl of culture supernatants were collected from each well and an equal volume of fresh medium was added to the wells. The collected supernatants were mixed with an equal volume of 5% (v/v) Triton X-100 and assayed for p24 antigen using an ELISA kit from Coulter Immunology (Hialeah, Fla.).

[7] = system: HIV-1IIIB-infected H9 cells and uninfected MT-2 cells; experiment: Inhibition of fusion between HIV-infected and uninfected cells; type: cell-based; settings: for IC50 (mean ± SD), inhibition of fusion / IC90 (mean ± SD), inhibition of fusion: H9/HIV-1 IIIB + MT-2 cells, 2 h; for IC50 / IC90: Table 1.4
Description: In this assay, HIV-1IIIB-infected H9 cells were labeled with BCECF (2′,7′-bis(2-carboxyethyl)-5-6-carboxyfluorescein-acetoxymethyl-ester, Molecular Probes, Eugene, Oreg.) according to the manufacturer's instructions. BCECF-labeled H9/HIV-1 IIIB cells (10^4) were mixed with 1×10^5 uninfected MT-2 cells. After incubation in a 96-well plate at 37° C. for 2 h, the fused and unfused labeled cells were counted under an inverted fluorescence microscope at ×160 magnification. At least 200 BCECF-labeled cells were counted and the proportion of fused cells was determined Fusion tests were carried out in the presence and absence of graded quantities of the tested Lipid-conjugates. […] The IC50 represents the concentration of a drug that is required to achieve 50% inhibition. Similarly, the IC90 represents the concentration of a drug that is required to achieve 90% inhibition.

[8] = system: vaccinia virus (WR strain); type: cell-based; settings: 48 hr
[9] = target: V3 (third variable) domain of the HIV-1 envelope glycoprotein gp120; experiment: V3 antibody binding (ELISA); design: species or system human immunodeficiency virus type 1 (HIV-1); settings: standard ELISA
Description: V3 antibody binding is an assay that uses an antibody that binds to the V3 (third variable) domain of the human immunodeficiency virus type 1 (HIV-1) envelope glycoprotein gp120. Anti-V3 domain antibodies may provide an indicator of the presence and amount of HIV. V3 antibody binding was determined by standard ELISA.

[10] = system: Respiratory syncytial virus; type: cell-based, strain A2; settings: lower range of doses, at the concentrations tested
Punta Toro virus [11] = type: cell-based, strain Adames
Punta Toro virus [12] = type: cell-based, strain Adames; remark: listed apart in the source
Influenza B virus = type: cell-based, Influenza type B, B/Hong Kong/330/02; settings: lower range of doses, at the concentrations tested
Human RBC = experiment: Prevention of hemolysis of human red blood cells; type: cell-based; settings: 20 min, 10 μM Lipid-conjugate, None = 1.000
Description: Hemolysis, the breakdown of red blood cells (RBC), may be either a primary disease in itself, or a syndrome associated with another disease or physiological insult. In order to determine the effect of Lipid-conjugates on hemolysis, red blood cells were incubated in the presence of known membrane destabilizing agents and the release of hemoglobulin into the extracellular medium was detected.
Human RBC were washed in saline and suspended in Hanks buffer (pH 7.4). Hemolysis was induced in the absence or presence of 10 μM Lipid-conjugates by treatment with either 5 U/ml streptolysin O (SLO), 25 U/ml streptolysin S (SLS), or 5 μg/ml lysophosphatidylcholine (lyso-PC) for 20 min. The cell membranes were spun and the hemoglobin content in the supernatant was determined by measuring the O.D. at 540 nm (Table 5.1).

[13] = lower range of doses, at the concentrations tested

Molecule	toxicity: mortality rate, body weight, blood count, hematocrit, internal organ histology (mice)	IC50 (mean ± SD), inhibition of p24 production (HIV-1IIIB)	IC90 (mean ± SD), inhibition of p24 production (HIV-1IIIB)	IC50 (mean ± SD), inhibition of fusion [7]	IC90 (mean ± SD), inhibition of fusion [7]	IC50 (HIV-1IIIB)	IC90 (HIV-1IIIB)	% inhibition [8]	Virus titer [8]	IC50 [7]	IC90 [7]	IC50 [9]	other results
NC(=O)c1ncn([C@@H]2O[C@H](CO)[C@@H](O)[C@H]2O)n1 [Ribavirin, reference compound]													SI (IC50/EC50) [1]: 25; SI (IC50/EC50) [2]: 36; SI (IC50/EC50) ([3]; high concentration, Visual Observation Assay, Influenza A (H3N2 strain)): 56; SI (IC50/EC50) [4]: 22
PE conjugated to CMC [Compound XXVI]	did not alter the parameters												TXB2 [5]: 1.75 ng/mL; % Inhibition of tracheal ring contraction ([6]; stimulant Endothelin-1 (100 nM)): 92 ± 1.1%; % Inhibition of tracheal ring contraction ([6]; stimulant Histamine (20 μM)): 69 ± 0.1%; % Inhibition of tracheal ring contraction ([6]; stimulant Phospholipase (0.5 μ/ml) (crotalus atrox type II)): 100 ± 0.3%
PE conjugated to Polygeline (haemaccel) [Compound XXVII]		375.8 ± 119.5 mg/L	>500 mg/L	>500 mg/L	>500 mg/L								
dimyristoyl-phosphatidyl-ethanolamine linked to HA [Compound XXIII]		118.0 ± 16.8 mg/L	296.3 ± 104.0 mg/L	122.8 ± 14.8 mg/L	219.8 ± 10.6 mg/L	1.77 µM	4.44 µM	99.9%	7.7 × 10^4 PFU/culture	1.83 µM	3.3 µM	3 µM	
dipalmitoyl-phosphatidyl-ethanolamine (PE) conjugated to chondroitin-sulfate A [Compound XXV]	induced hemorrhage	72.5 ± 8.0 mg/L	106.0 ± 10.3 mg/L	>500 mg/L	>500 mg/L	1.45 µM	2.12 µM	62.8%	3.2 × 10^7 PFU/culture	> 10 µM	> 10 µM	0.2 µM	virus inhibitory effect against influenza A (H3N2 strain) [3, 13]: did not demonstrate a virus inhibitory effect; virus inhibitory effect against RSV [10]: did not demonstrate a virus inhibitory effect; SI (IC50/EC50) (Punta Toro virus [11]): 0; EC50 (Punta Toro virus [11]; low concentrations, Visual Observation Assay, Punta Toro A): >100 mg/L; virus inhibitory effect against Punta Toro virus (Punta Toro virus [11]; [13]): did not display a virus inhibitory effect; SI (IC50/EC50) (Punta Toro virus [12]): 0; EC50 (Punta Toro virus [12]; low concentrations, Neutral Red Uptake Assay, Punta Toro A): >100 mg/L; virus inhibitory effect against influenza B (Influenza B virus): did not demonstrate a virus inhibitory effect
hyaluronic acid [HA, reference compound]													HEMOLYSIS (O.D. AT 540 nm), Lyso-PC (Human RBC; 5 μg/ml lysophosphatidylcholine): 1.875 O.D.; HEMOLYSIS (O.D. AT 540 nm), SLO (Human RBC; 5 U/ml streptolysin O): 1.000 O.D.; HEMOLYSIS (O.D. AT 540 nm), SLS (Human RBC; 25 U/ml streptolysin S): 1.000 O.D.
